Measured values reported in article PMC8838037, “Design, Synthesis and Molecular Docking Study of Novel 3-Phenyl-β-Alanine-Based Oxadiazole Analogues as Potent Carbonic Anhydrase II Inhibitors” (Molecules, 2022).

Target: T1, bovine erythrocyte CA-II (Bos taurus, UniProt P00921)
T1 construct: purified bovine erythrocyte CA-II; from tissue; host or cells: bovine erythrocytes
Assay: Carbonic anhydrase II inhibition assay (colorimetric, 4-nitrophenyl acetate substrate)
Format: biochemical
Conditions: for IC50: N/A = Not active; for % Inhibition: test concentration not given
Protocol: 20 µL of tested compounds were incubated with the enzyme carbonic anhydrase II (EC 4.2.1.1) for 15 min in 96-well flat bottom plate. The rate of product formation was monitored with the addition of 20 µL of 4-NPA as substrate, prepared in ethanol at the final concentration of 0.7 mM at 25 °C for 30 min with regular intervals of 1 min, by using spectrophotometer (xMark^TM Microplate, Bio-Rad, Hercules, CA, USA). HEPES-tris was used as a buffer for the reaction at the final concentration of 20 mM at pH 7.4.

T1 sequence (P00921 2-260): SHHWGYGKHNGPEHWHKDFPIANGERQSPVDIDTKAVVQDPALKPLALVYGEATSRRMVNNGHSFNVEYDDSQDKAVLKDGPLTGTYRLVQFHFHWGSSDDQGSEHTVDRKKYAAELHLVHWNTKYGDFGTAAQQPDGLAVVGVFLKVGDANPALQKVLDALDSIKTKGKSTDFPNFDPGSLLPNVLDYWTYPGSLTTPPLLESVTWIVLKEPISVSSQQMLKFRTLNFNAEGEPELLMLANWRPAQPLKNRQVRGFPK

Compound	IC50 [µM]	% Inhibition [%]
CC(C)(C)OC(=O)N[C@@H](Cc1nnc(-c2ccccn2)o1)c1ccccc1 [Compound 4a, Tert-Butyl (S)-(1-phenyl-2-(5-(pyridin-2-yl)-1,3,4-oxadiazol-2-yl)ethyl) carbamate]	12.1 ± 0.86	96.2
CC(C)(C)OC(=O)N[C@@H](Cc1nnc(-c2ccccc2O)o1)c1ccccc1 [Compound 4b, Tert-Butyl (S)-(2-(5-(2-hydroxyphenyl)-1,3,4-oxadiazol-2-yl)-1-phenylethyl) carbamate]	19.1 ± 0.88	93.5
CC(C)(C)OC(=O)N[C@@H](Cc1nnc(-c2ccc(O)cc2)o1)c1ccccc1 [Compound 4i, Tert-Butyl (S)-(2-(5-(4-hydroxyphenyl)-1,3,4-oxadiazol-2-yl)-1-phenylethyl) carbamate]	18.1 ± 1.31	58.0
COc1ccc(-c2nnc(C[C@H](NC(=O)OC(C)(C)C)c3ccccc3)o2)cc1OC [Compound 4j, Tert-Butyl (S)-(2-(5-(3,4-dimethoxyphenyl)-1,3,4-oxadiazol-2-yl)-1-phenylethyl) carbamate]	26.6 ± 1.47	96.7
COc1ccc(OC)c(-c2nnc(C[C@H](NC(=O)OC(C)(C)C)c3ccccc3)o2)c1 [Compound 4k, Tert-Butyl (S)-(2-(5-(2,5-dimethoxyphenyl)-1,3,4-oxadiazol-2-yl)-1-phenylethyl) carbamate]	22.4 ± 1.43	87.8
CC(C)(C)OC(=O)N[C@@H](Cc1nnc(-c2ccc(Cl)cc2)o1)c1ccccc1 [Compound 4l, Tert-Butyl (S)-(2-(5-(4-chlorophenyl)-1,3,4-oxadiazol-2-yl)-1-phenylethyl) carbamate]	53.6 ± 0.96	67.6
Tert-Butyl(S)-(1-phenyl-2-(5-phenyl-1,3,4-oxadiazol-2-yl)ethyl) carbamate [Compound 4c]	13.8 ± 0.64	95.5
Tert-Butyl(S)-(2-(5-(4-methoxyphenyl)-1,3,4-oxadiazol-2-yl)-1-phenylethyl) carbamate [Compound 4d]	–	29.0
